Measured values reported in US11667602B2, “Compounds and their use” (AstraZeneca AB, priority 2020, dated 2023).
Values after ≈ are worked out from the molar mass of the structure shown.

What was measured:
human RXFP1 = molecular target: T1, human RXFP1 (Homo sapiens, UniProt Q9HBX9); assay: RXFP1 Hu cAMP (Test A); format: cell-based; set-up: expressed in transfected cells; host or cells: Jump-In T-REx CHO-K1 cells (ThermoFisher), induced with 10 ng/ml doxycycline for 24 h; settings: RXFP1 Hu cAMP; for EC50: read-out: Test A EC50
T1 sequence (Q9HBX9 1-757): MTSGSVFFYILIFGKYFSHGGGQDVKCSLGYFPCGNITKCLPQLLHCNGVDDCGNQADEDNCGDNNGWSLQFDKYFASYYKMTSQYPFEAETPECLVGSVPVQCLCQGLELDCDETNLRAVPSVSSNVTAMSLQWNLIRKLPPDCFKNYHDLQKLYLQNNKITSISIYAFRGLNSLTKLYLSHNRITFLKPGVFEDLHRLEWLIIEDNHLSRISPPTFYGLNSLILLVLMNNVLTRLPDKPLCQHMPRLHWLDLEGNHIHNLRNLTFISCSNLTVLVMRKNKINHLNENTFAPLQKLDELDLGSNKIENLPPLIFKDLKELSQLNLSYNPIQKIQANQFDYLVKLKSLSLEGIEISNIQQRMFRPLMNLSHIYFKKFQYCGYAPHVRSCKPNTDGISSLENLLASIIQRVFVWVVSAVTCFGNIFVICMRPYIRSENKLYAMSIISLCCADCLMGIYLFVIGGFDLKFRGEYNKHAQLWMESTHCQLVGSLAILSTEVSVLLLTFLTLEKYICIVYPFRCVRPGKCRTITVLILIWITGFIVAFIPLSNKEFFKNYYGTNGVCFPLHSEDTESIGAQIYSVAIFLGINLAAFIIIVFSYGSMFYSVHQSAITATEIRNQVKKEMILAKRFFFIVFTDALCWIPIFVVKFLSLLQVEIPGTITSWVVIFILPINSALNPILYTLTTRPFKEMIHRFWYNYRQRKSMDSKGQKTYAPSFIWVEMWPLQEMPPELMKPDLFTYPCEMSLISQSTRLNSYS
Method in brief: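 Read-out is HTRF signal, inversely proportional to cAMP, converted to cAMP amount by standard curve. Stimulation occurred in inducible CHO-K1 cells expressing the human receptor with phosphodiesterases blocked by 0.5 mM IBMX.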

[1] = Rat Hepatocyte Stability (Test E); format: in vitro ADME; settings: rat, hepatocytes, geometric mean if run multiple times
Method in brief: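 Run per the published AstraZeneca-type rat hepatocyte stability protocol (Wernevik et al. panel). Values are mean intrinsic clearance, Clint in μl/min/10^6 cells; geometric mean used for repeated runs.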

[2] = Human Liver Microsomal Stability (Test C); format: in vitro ADME; settings: human, liver microsomes
Method in brief: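 Human liver microsome incubation per the Wernevik et al. integrated DMPK panel protocol. Intrinsic clearance reported as CLint in μl/min/mg protein, averaged arithmetically over repeat runs.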

Solubility (Test F) = format: physicochemical; settings: arithmetic mean if run multiple times
Description: The assay was conducted according to the Solubility Assay described in pages 164-167 of Wernevik, J. et al., “A Fully Integrated Assay Panel for Early Drug Metabolism and Pharmacokinetics Profiling”, Assay and Drug Development Technologies, 2020, 18(4), 157-179. Data are reported in Table 36 as solubility ([…]. Where the assay was run multiple times for the same compound, the arithmetic mean is reported.

[3] = Human Plasma Protein Binding (Test B); format: in vitro ADME; settings: fraction unbound (fu)
Method in brief: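 Human plasma protein binding run per the published Wernevik et al. (2020) integrated DMPK panel protocol. Values are fraction unbound (fu, % free); repeat runs averaged arithmetically.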

Row | Structure (SMILES) | Test A Sinf (human RXFP1) | EC50 (human RXFP1) | hepatocyte CLint [1] | microsomal CLint [2] | solubility (Solubility (Test F)) | Test B Human Plasma Protein Binding (% free) [3]
1 | COc1cc(F)c(O[C@H]2CC[C@@H](C(=O)O)CC2)cc1C(=O)N[C@@H]1[C@H]2CC[C@H](C2)[C@@H]1C(=O)Nc1ccc(C#N)c(Br)c1 [Example 27, (1S,4s)-4-(5-(((1S,2R,3S,4R)-3-((3-Bromo-4-cyanophenyl)carbamoyl)bicyclo[2.2.1]heptan-2-yl)carbamoyl)-2-fluoro-4-methoxyphenoxy)cyclohexane-1-carboxylic acid] | 88% | 130 nM | > 300 µL/min/1e6 cells | 29 µL/min/mg | 990 µM (≈ 622 µg/mL) | 0.40 % free
2 | COc1cc(F)c(O[C@H]2CC[C@@](C)(C(=O)O)CC2)cc1C(=O)N[C@@H]1COC[C@@H]1C(=O)Nc1ccc(F)c(C(F)(F)F)c1 [Example 52, (1R,4s)-4-(2-fluoro-5-(((3S,4R)-4-((4-fluoro-3-(trifluoromethyl)phenyl)carbamoyl)tetrahydrofuran-3-yl)carbamoyl)-4-methoxyphenoxy)-1-methylcyclohexane-1-carboxylic acid] | 108% | – | 34 µL/min/1e6 cells | 13 µL/min/mg | 890 µM (≈ 534 µg/mL) | 0.94 % free
3 | COc1cc(C#N)c(O[C@H]2CC[C@@](C)(C(=O)O)CC2)cc1C(=O)N[C@@H]1[C@H]2CC[C@H](C2)[C@@H]1C(=O)NC[C@H](F)CO [Example 89] | – | > 5000 nM | 17 µL/min/1e6 cells | < 3 µL/min/mg | 780 µM (≈ 426 µg/mL) | 50 % free
4 | COc1cc(C#N)c(O[C@H]2CC[C@@](C)(C(=O)O)CC2)cc1C(=O)N[C@@H]1[C@H]2CC[C@H](C2)[C@@H]1C(=O)NCC1(O)CCC(F)(F)CC1 [Example 101] | 100% | > 3500 nM | 28 µL/min/1e6 cells | < 3 µL/min/mg | 990 µM (≈ 612 µg/mL) | 20 % free
5 | COc1cc(F)c(O[C@H]2CC[C@@H](C(=O)O)CC2)cc1C(=O)N[C@@H]1[C@H]2CC[C@H](C2)[C@@H]1C(=O)NC1CCCCC1 [Example 9, (1S,4s)-4-(5-(((1S,2R,3S,4R)-3-(Cyclohexylcarbamoyl)bicyclo[2.2.1]heptan-2-yl)carbamoyl)-2-fluoro-4-methoxyphenoxy)cyclohexane-1-carboxylic acid] | 100% | > 7300 nM | 67 µL/min/1e6 cells | 9.2 µL/min/mg | 27 µM (≈ 14.3 µg/mL) | 11 % free
6 | COc1cc(F)c(O[C@H]2CC[C@@H](C(=O)O)CC2)cc1C(=O)N[C@@H]1[C@H]2CC[C@H](C2)[C@@H]1C(=O)Nc1cc(C#N)cc(C(F)(F)F)c1 [Example 191, (1S,4s)-4-(5-(((1S,2R,3S,4R)-3-((3-Cyano-5-(trifluoromethyl)phenyl)carbamoyl)bicyclo[2.2.1]heptan-2-yl)carbamoyl)-2-fluoro-4-methoxyphenoxy)cyclohexane-1-carboxylic acid] | 86% | > 3600 nM | 15 µL/min/1e6 cells | 20 µL/min/mg | > 1000 µM | 1.1 % free
7 | COc1cc(F)c(-c2ccc(C(N)=O)cc2)cc1C(=O)N[C@@H]1[C@H]2CC[C@H](C2)[C@@H]1C(=O)Nc1cccc(S(=O)(=O)C(F)(F)F)c1 [Example 434, 6-Fluoro-4-methoxy-N3-((1S,2R,3S,4R)-3-((3-((trifluoromethyl)sulfonyl)phenyl)carbamoyl)bicyclo[2.2.1]heptan-2-yl)-[1,1′-biphenyl]-3,4′-dicarboxamide] | 82% | 590 nM | 13 µL/min/1e6 cells | 110 µL/min/mg | 130 µM (≈ 82.4 µg/mL) | <0.36 % free
8 | CCC(CC)CNC(=O)[C@H]1CCC[C@H]1NC(=O)c1cc(O[C@H]2CC[C@@](C)(C(=O)O)CC2)c(F)cc1OC [Example 59, (1S,4s)-4-(5-(((1R,2S)-2-((2-Ethylbutyl)carbamoyl)cyclopentyl)carbamoyl)-2-fluoro-4-methoxyphenoxy)-1-methylcyclohexane-1-carboxylic acid] | 100% | 550 nM | 27 µL/min/1e6 cells | 22 µL/min/mg | 960 µM (≈ 500 µg/mL) | 2.4 % free
9 | O=C(N[C@@H]1[C@H]2CC[C@H](C2)[C@@H]1C(=O)Nc1cccc(S(=O)(=O)C(F)(F)F)c1)c1cc(O[C@H]2CC[C@@H](C(=O)O)CC2)c(F)cc1F [Example 430] | 101% | > 230 nM | 22 µL/min/1e6 cells | 61 µL/min/mg | 760 µM (≈ 490 µg/mL) | 3 % free
10 | COCC1(CNC(=O)[C@H]2[C@@H]3CC[C@@H](C3)[C@H]2NC(=O)c2cc(O[C@H]3CC[C@@](C)(C(=O)O)CC3)c(C#N)cc2OC)CC1 [Example 79] | – | > 5000 nM | 31 µL/min/1e6 cells | 7.5 µL/min/mg | 980 µM (≈ 556 µg/mL) | 28 % free
11 | COc1cc(C#N)c(O[C@H]2CC[C@@](C)(C(=O)O)CC2)cc1C(=O)N[C@@H]1[C@H]2CC[C@H](C2)[C@@H]1C(=O)NCC1CCC(C#N)CC1 (stereo partly drawn) [Example 107] | 112% | 8300 nM | 34 µL/min/1e6 cells | 7.9 µL/min/mg | 1000 µM (≈ 591 µg/mL) | 26 % free
12 | COc1cc(C#N)c(O[C@H]2CC[C@@](C)(C(=O)O)CC2)cc1C(=O)N[C@@H]1[C@H]2CC[C@H](C2)[C@@H]1C(=O)NCC1(F)CCCC1 [Example 92] | 122% | 140 nM | 32 µL/min/1e6 cells | 8.4 µL/min/mg | 920 µM (≈ 524 µg/mL) | 12 % free
13 | COc1cc(F)c(O[C@H]2CC[C@@H](C(=O)O)CC2)cc1C(=O)N[C@@H]1[C@H]2CC[C@H](C2)[C@@H]1C(=O)Nc1cccc(C(F)(F)F)c1 [Example 193] | 105% | 62 nM | 61 µL/min/1e6 cells | 29 µL/min/mg | > 1000 µM | 0.93 % free
14 | CCCCNC(=O)[C@H]1[C@@H]2CC[C@@H](C2)[C@H]1NC(=O)c1cc(O[C@H]2CC[C@@](C)(C(=O)O)CC2)c(C#N)cc1OC [Example 91] | 114% | 270 nM | 59 µL/min/1e6 cells | 20 µL/min/mg | 830 µM (≈ 436 µg/mL) | 5.9 % free
